Patent publication US4960900A, “Oxyimino derivatives of thiazole, method of preparation and use in therapy” (priority 1987, dated 1990)
Entries after “also recorded” stand apart in the source; their conditions may differ. Read-outs that look alike come from different tables or passages of the source.

Columns and labels:
[1] = prior art documents; cited from earlier work
[2] = prior art documents; cited from earlier work; remark: listed apart in the source
male mice [3] = assay: in vivo; details: for Therapeutic index MCE / Therapeutic index PTZ: LD50 per os/ED50 per os; for LD50: male mice
Protocol: (§1) The toxicity of the products to be studied was investigated by the oral administration, using an esophageal tube, of each of the said products to male mice with a body weight of 18 to 22 g, divided into groups each containing 10 to 20 animals. The mortality was recorded over a 14-day period.
(§2) The results obtained, which are expressed in the form of LD50 in mg/kg, are collated in Table II below.

in vivo [4] = details: mouse, in vivo, po; for selectivity ratio: LD50 per os/ED50 per os
Protocol: as §1, §2

[5] = tested on: convulsions induced by supramaximal electroshock (MCE); assay: Anticonvulsant properties: convulsions induced by supramaximal electroshock (MCE), oral, mice; format: in vivo; details: per os, male mice, 30 min after administration; for ED50: Mus musculus, po, 0.5 h, read-out: ED50 in respect of convulsions induced by MCE
From the text: MCE: supramaximal electroshock;
*: ED50 in mg/kg, determined per os on groups each containing ten

[6] = tested on: convulsions induced by pentetrazole (PTZ); assay: Anticonvulsant properties: convulsions induced by pentetrazole (PTZ), oral, mice; format: in vivo; details: per os, male mice, 30 min after administration, pentetrazole 125 mg/kg i.p.; for ED50: Mus musculus, po, 0.5 h, read-out: ED50 in respect of convulsions induced by PTZ; for ED50 in respect of convulsions induced by PTZ: 30 min
male mice [7] = assay: in vivo; format: in vivo
Protocol: (§3) The neurotoxic properties were assessed on male mice by the so-called "Rota-rod" test carried out thirty minutes after the oral administration of the substances to be studied. The animals (divided into groups each containing ten male mice per dose and per product) are installed on the rod and their fall is observed over the next two minutes.
(§4) The results obtained are expressed in the form of the 50% neurotoxic dose (TD50) per os, which is the dose causing 50% of the animals to fall.
(§5) Protection index: TD50 per os/ED50 per os
(§6) *dose determined per os on groups each containing ten male mice.

in vivo [8] = format: in vivo; details: mouse, in vivo, po
Protocol: as §3, §4, §5, §6

convulsive seizures = assay: Anticonvulsant properties in mice, overall statement (PTZ and MCE); format: in vivo, male mice; details: for most effective products according to the invention: in view of protection and therapeutic indices, Table IV
Protocol: The anticonvulsant properties were investigated on male mice, thirty minutes after the oral administration of the substances to be studied, by the induction of convulsive seizures.
These seizures are caused either by the intraperitoneal injection of pentetrazole (125 mg/kg) or by electrical stimulation of the cornea (supra-maximal electroshock, abbreviated to MCE).
The results, expressed in the form of the 50% effective dose (ED50) per os (dose protecting 50% of the animals), are collated in Table III below.

[9] = LD50, Table II, male mice, 14 days
[10] = LD50, Table IV, per os, male mice
[11] = TD50 per os/ED50 per os, MCE, read-out: Protection index MCE
[12] = TD50 per os/ED50 per os, PTZ, read-out: Protection index PTZ
[13] = Rota-rod, per os, male mice, 30 min after administration, read-out: TD50
[14] = versus sodium valproate and trimethadione

Compound	LD50 at 336 h (in vivo [4]; [9]) [mg/kg]	LD50 at 336 h (in vivo [4]; [10]) [mg/kg]	selectivity ratio (in vivo [4]; Therapeutic index MCE, MCE)	selectivity ratio (in vivo [4]; Therapeutic index PTZ, PTZ)	ED50 [5] [mg/kg]	ED50 [6] [mg/kg]	selectivity ratio (in vivo [8]; Protection index MCE)	selectivity ratio (in vivo [8]; Protection index PTZ)	TD50 at 0.5 h (in vivo [8]; TD50) [mg/kg]	further results
Cc1ncsc1C(C)O (centres unmarked) [1-(4-methylthiazol-5-yl)ethanol]										antihypoxic properties (prior art) [1]: devoid of beneficial antihypoxic effects; anticonvulsant properties (prior art) [2]: possesses anticonvulsant properties; also recorded: is an anticonvulsant
Cc1ncsc1CO [5-hydroxymethyl-4-methylthiazole]										anticonvulsant properties (prior art) [2]: devoid of anticonvulsant effects
CON=C(C)c1scnc1C [Ex. 1, 5-(1-methoxyiminoethyl)-4-methylthiazole]	740	740	8.8	11.9	84	62	4.1	5.6	347	therapeutic indices compared with the reference products (male mice [3]; mouse, in vivo): better than those of the reference products; protection indices compared with the reference products (male mice [7]; mouse, in vivo): better than those of the reference products
CON=C(C)c1scnc1C.Cl [Ex. 2, 5-(1-methoxyiminoethyl)-4-methylthiazole hydrochloride]	1000	1000			100	72			270	Therapeutic index MCE (male mice [3]): 10.0; Therapeutic index PTZ (male mice [3]): 13.9; Protection index MCE (male mice [7]; mouse, in vivo, po): 2.7; Protection index PTZ (male mice [7]; mouse, in vivo, po): 3.8
CO/N=C(\C)c1scnc1C [Ex. 3, 5-(1-methoxyiminoethyl)-4-methylthiazole]	570	570	5.9	6.3	97	91	3	3.2	290	activity as an anticonvulsant (convulsive seizures; pure E isomer versus mixture E/Z=91/9): less active than the corresponding mixture E/Z=91/9
CCON=C(C)c1scnc1C [Ex. 4]	1000				150	120				
CCON=C(C)c1scnc1C [Ex. 5]			8.3	10			6.3	7.5	750	therapeutic indices compared with the reference products (male mice [3]; mouse, in vivo): better than those of the reference products; LD50 at 336 h (in vivo [4]; LD50): 1000 mg/kg; ED50 in respect of convulsions induced by MCE ([5]; 30 min): 120 mg/kg; ED50 in respect of convulsions induced by PTZ [6]: 100 mg/kg; protection indices compared with the reference products (male mice [7]; mouse, in vivo): better than those of the reference products
CC(=NOC(C)C)c1scnc1C [Ex. 6]	> 1000				> 200	112				
CC(=NOC(C)C)c1scnc1C [Ex. 7]										LD50 (male mice [3]; Table II, oral, 14 days): > 1000 mg/kg; ED50 in respect of convulsions induced by MCE [5]: > 200 mg/kg; ED50 in respect of convulsions induced by PTZ [6]: 140 mg/kg
CCCCON=C(C)c1scnc1C [Ex. 8, 5-(1-n-butoxyiminoethyl)-4-methylthiazole]	750				> 200	> 200				
CCCCON=C(C)c1scnc1C.Cl [Ex. 9, 5-(1-n-butoxyiminoethyl)-4-methylthiazole hydrochloride]	> 1000	> 1000	> 6.7	> 7.3	150	138	4	4.4	600	
CC(=NOCc1ccccc1)c1scnc1C [Ex. 11, 5-(1-benzyloxyiminoethyl)-4-methylthiazole]			> 12.8							Therapeutic index PTZ (male mice [3]): > 21.7; LD50 (male mice [3]; Table IV, per os, 20160 min): > 1000 mg/kg; ED50 in respect of convulsions induced by MCE ([5]; 30 min): 78 mg/kg; most effective products according to the invention (convulsive seizures): most effective; ED50 in respect of convulsions induced by PTZ [6]: 46 mg/kg; selectivity ratio (in vivo [8]; [11]): 12.8; selectivity ratio (in vivo [8]; [12]): 21.7; TD50 at 0.5 h (in vivo [8]; [13]): 1000 mg/kg
CC(=NOCc1ccccc1)c1scnc1C [Ex. 12]							8.6	13.5	1350	Therapeutic index MCE (male mice [3]): > 6.4; Therapeutic index PTZ (male mice [3]): > 10.0; therapeutic indices compared with the reference products (male mice [3]; mouse, in vivo): better than those of the reference products; LD50 at 336 h (in vivo [4]; LD50): > 1000 mg/kg; ED50 in respect of convulsions induced by MCE ([5]; 30 min): 157 mg/kg; most effective products according to the invention (convulsive seizures): most effective; ED50 in respect of convulsions induced by PTZ [6]: 100 mg/kg; protection indices compared with the reference products (male mice [7]; mouse, in vivo): better than those of the reference products
CC(=NOCc1ccccc1F)c1scnc1C [Ex. 13]			> 5.4	> 9.5	184	105				LD50 (male mice [3]; Table IV, per os, 20160 min): > 1000 mg/kg; therapeutic indices compared with the reference products (male mice [3]; [14]): better than those of the reference products; LD50 at 336 h (in vivo [4]): > 1000 mg/kg; protection indices compared with the reference products (male mice [7]; [14]): better than those of the reference products; selectivity ratio (in vivo [8]; [11]): 4; selectivity ratio (in vivo [8]; [12]): 7.1; TD50 at 0.5 h (in vivo [8]; [13]): 750 mg/kg
CC(=NOCc1cccc(Cl)c1)c1scnc1C [Ex. 14]	> 1000	> 1000		> 7.1	> 200	140				selectivity ratio (in vivo [8]; [12]): 5.4; TD50 at 0.5 h (in vivo [8]; [13]): 750 mg/kg
CC(=NOCc1ccccc1C)c1scnc1C [Ex. 15]	> 1000					60				
